Assay results from patent EP4585599A1, “NITROGEN-CONTAINING FUSED RING COMPOUND, INTERMEDIATE THEREOF, PREPARATION METHOD THEREFOR AND USE THEREOF” (Hangzhou Synrx Therapeutics Biomedical Technology Co., Ltd., priority 2022, dated 2024).
Values after ≈ are worked out from the molar mass of the structure shown. Values joined by “and” are separate entries in the source; they are usually repeats but may differ in a detail not shown here. Equal values may be shown once. Read-outs that look alike come from different tables or passages of the source.

Tests used:
Solubility assay = settings: phosphate buffer, pH 7.4, aqueous buffer, kinetic from dmso stock
Experimental: 1) Prepare 0.1 M Na2PO4 buffer (pH 7.4): 11 g of Na2HPO4 (FW: 141.96) and 3.5 g of NaH2PO4_2H2O (FW: 156.03) were added to 1L of Mili-Q water, with pH adjusted to 7.4 using phosphoric acid or sodium hydroxide. 2) 10 µL of the compound to be tested (concentration: 10 mM in DMSO) was added to 990 µL of Na2PO4 buffer (final DMSO concentration: 1%) prepared in Step 1). 3) The sample tube was shaken at room temperature for 2 hours (1000 rpm/min). 4) Prepare the calibration curve: a) Prepare 300 µM spiking solution (SS): 6 µL (10 mM in DMSO) of the stock solution of the compound to be tested was added to 194 µL of MeOH/ACN (4:1); and b) Draw the standard curve.
5) The samples were centrifuged (10 min, 12,000 rpm) to precipitate insoluble particles. The supernatant was filtered with a 0.22 µm filter membrane, and then transferred to a new centrifuge tube. 6) The supernatant was diluted 10-fold with 100 mM buffer. The supernatant (10 µL) was added to the buffer (100 mM, 90 µL) and diluted 10-fold. 7) The sample was prepared under LC-MS/MS (API 4000) detection.
10 µL of the sample (10-fold dilution) and a standard curve sample were added to 400 µL of (MeOH: ACN=1:1) solution, and detected on the instrument, and the solubility value was calculated according to the standard curve.

cells = settings: Homo sapiens, DLD-1, 240 h
[1] = Mouse PK assay after oral administration; settings: for MRT / bioavailability / half-life: male, ICR, mouse, po; for MRT / bioavailability / half-life / Area under curve (0-t; hr * ng/mL) / Peak concentration: plasma; for Time to peak / Area under curve (0-t; hr * ng/mL) / Peak concentration: mice, oral
Experimental: The objective of this experiment was to study the pharmacokinetics of the test compound in ICR mice (male, 18-22 g, 4-6 weeks old, Beijing Vital River Laboratory Animal Technology Co., Ltd.) after oral administration. The specific experimental procedures were as follows: • 1) The compound was dissolved in 5% DMSO + 40% PEG + 20% (10% TPGS) in water + 35% water at a concentration of 0.5 mg/mL, and then administered orally (5 mL/Kg); and • 2) Blood samples were collected, with 0.03 mL collected at 0.25 h, 0.5 h, 1 h, 2 h, 4 h, 8 h, and 24 h, and EDTA-K2 was added. […] The blood was centrifuged for 5 min at 4000 g in a centrifuge at 4°C to collect plasma. Plasma samples were aliquoted into clean polyethylene microcentrifuge tubes and then stored in a freezer at -75 ± 15°C before analysis; and • 3) Samples were analyzed, and the concentration of the compound in each plasma sample was analyzed by LC-MS/MS. For plasma measurements, pharmacokinetic parameters were calculated using WinNonlin (PhoenixTM, version 8.3) or other similar software.

in vitro = settings: mouse, microsomes, pH 7.4
Experimental: (§1) a) Phosphate buffer solution (PBS): 100 mM, pH=7.4±0.1.
(§2) 73.21 g of dipotassium phosphate trihydrate K2HPO4·3H2O (MW=228.22) and 10.78 g of potassium dihydrogen phosphate KH2PO4 (MW=136.09) were dissolved in 4000 mL of pure water, with pH adjusted to 7.4 ± 0.1 using phosphoric acid or potassium hydroxide.
(§3) b) Microsome working solution: 1.0 mg/mL.
(§4) The purchased mouse liver microsomes (IPHASE, Cat. No.: 0121E1.01, Lot. No.: 22F001) were of 20 mg/mL (10 mg, 0.5 mL), with 225 µL added to 4275 µL of PBS solution to prepare 1.0 mg/mL microsome working solution.
(§5) (Note whether the precipitation occurred) • III, 200 µL of the 40 mM NADPH stock solution, 2.0 mL of the 12 mM magnesium chloride stock solution, and 1.80 mL of the PBS solution were used to prepare the working solution of the NADPH regeneration system, containing the 2 mM NADPH solution and the 6 mM magnesium chloride mixture.
(§6) d) Stop solution: containing 200 ng/mL tolbutamide acetonitrile solution. • I, 6.006 mg of tolbutamide (MV=270.35, 99.9%) solids were weighed, and 30 mL of acetonitrile was added to prepare the 200 µg/mL of tolbutamide stock solution. • II, 500 mL of acetonitrile was added to 500 µL of the 200 µg/mL tolbutamide stock solution to obtain the tolbutamide acetonitrile solution with a concentration of 200 ng/mL.
(§7) e) Test sample/reference working solution: 100 µM test sample/reference working solution • I, 1 mL of 1.0 mg/mL testosterone (MV=288.42) solution was purchased, and 155.8 µL of ACN was added to prepare a testosterone stock solution with a concentration of 3 mM. • II, 1450 µL of acetonitrile was added to 50 µL of the 3 mM testosterone stock solution to prepare the 100 µM testosterone working solution. • III, 6.98 mg of propafenone hydrochloride was weighed, and 1.8433 mL of acetonitrile was added to dissolve the propafenone hydrochloride; and 5.67 mg of diclofenac sodium was weighed, and 1.783 mL of acetonitrile was added to dissolve the diclofenac sodium. 10 mM propafenone stock solution and 10 mM diclofenac stock solution were prepared respectively. • IV, 10 µL of the propafenone stock solution and 10 mL of the diclofenac stock solution were each added with 990 µL of acetonitrile to prepare 100 µM propafenone working solution and 100 µM diclofenac working solutions.
(§8) • a) 8 incubation plates were prepared, named T0, T5, T15, T30, T45, T60, Blank60 and NCF60, respectively. • b) 100 µL of microsome working solution was added to each of T0, T5, T15, T30, T45, T60, Blank60 and NCF60; 2 µL of the test (reference) working solution was added to each of T0, T5, T15, T30, T45, T60 and NCF60; and 2 µL of acetonitrile was added to Blank60. • c) T5, T15, T30, T45, T60, and Blank60 were pre-incubated in a 37°C water bath for 10 minutes. • d) 600 µL of the stop solution was added to the sample T0 to stop the reaction; and 98 µL of phosphate buffer solution (PBS) was added to NCF60, and NCF60 samples without the NADPH regeneration system were taken as negative control. • e) 98 µL of the working solution of the NADPH regeneration system was supplemented to the sample T0 that is stopped in the previous step; and after pre-incubation, 98 µL of the working solution of the NADPH regeneration system was added to each of T5, T15, T30, T45, T60, and Blank60 to initiate the reaction.

[2] = molecular target: T1, helicase domain of the Pol θ protein (Homo sapiens, UniProt O75417); assay: Biochemical Activity Assay (ADP Glo Assay) of Pol θ inhibitor, ATPase activity
T1 construct: The helicase domain of the Pol θ protein was purified from insect protein expression system; made in house; host or cells: insect protein expression system

[3] = read-out: Cell viability assay IC50
[4] = mouse, microsomes
Experimental: as §1, §2, §3, §4, §5, §6, §7, §8

[5] = read-out: Cell viability assay IC50 (nM), CTG assay, CellTiter Glo, read on Day 10, cell line not given
[6] = ADP-Glo assay, ATPase activity of Pol θ helicase domain, ssDNA substrate, read-out: Biochemical assay IC50
[7] = read-out: Cell viability assay IC50 (nM)
[8] = ADP-Glo, ssDNA substrate, 60 min at room temperature, read-out: Biochemical assay IC50

T1 sequence (O75417 102-554 limits assumed): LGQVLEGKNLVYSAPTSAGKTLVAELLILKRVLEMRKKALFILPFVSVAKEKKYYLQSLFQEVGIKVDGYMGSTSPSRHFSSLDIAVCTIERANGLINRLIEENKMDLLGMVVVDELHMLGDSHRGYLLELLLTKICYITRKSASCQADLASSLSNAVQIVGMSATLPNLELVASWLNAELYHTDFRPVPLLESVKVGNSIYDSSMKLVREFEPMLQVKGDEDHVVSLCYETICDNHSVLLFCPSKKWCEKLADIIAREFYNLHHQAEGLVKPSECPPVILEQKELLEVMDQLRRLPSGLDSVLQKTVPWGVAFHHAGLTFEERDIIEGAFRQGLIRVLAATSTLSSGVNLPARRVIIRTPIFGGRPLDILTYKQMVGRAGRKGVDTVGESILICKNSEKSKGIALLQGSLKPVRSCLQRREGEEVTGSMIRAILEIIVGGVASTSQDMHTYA

COc1cnc(Cl)cc1-c1cc(C)ncc1C(=O)Nc1nc2cnc(-c3c(C)nnn3C)c(F)c2s1 [Example 216]
solubility at 2 h (Solubility assay): 61.8 µM (≈ 32.4 µg/mL)
IC50 (cells; [5]): < 1.52 nM
MRT ([1]; 30 mg/kg): 3.38 h
bioavailability ([1]; 30 mg/kg): 178%
half-life ([1]; 30 mg/kg): 2.2 h
Time to peak ([1]; administration dose 30 mg/kg): 0.75 h
Area under curve (0-t; hr * ng/mL) ([1]; administration dose 30 mg/kg): 385.297 µg·h/mL
Peak concentration ([1]; administration dose 30 mg/kg): 89917 ng/mL
half-life at 1 µM (in vitro): 28.9 h
IC50 [2, 6]: 3.31 nM

COc1cnc(Cl)c(F)c1-c1cc(C)ncc1C(=O)Nc1nc2c(s1)CN(C(=O)C1CCOC1)CC2 (centres unmarked) [Example 54, 2'-chloro-3'-fluoro-5'-methoxy-6-methyl-N-(5-(tetrahydrofuran-3-carbonyl)-4,5,6,7-tetrahydrothiazol[5,4-c]pyridin-2-yl)-[4,4'-bipyridine]-3-carboxamide]
IC50 (cells; [7]): 500 to 1000 nM
IC50 [3]: 794 nM
IC50 ([2]; Biochemical assay IC50 (nM)): < 50 nM and 40.6 nM

COc1cnc(Cl)cc1-c1cc(C)ncc1C(=O)Nc1nc2ncc(N3CCC(O)CC3)nc2s1 [Example 70]
solubility at 2 h (Solubility assay): 70.6 µM (≈ 36.1 µg/mL)
IC50 (cells; [5]): 14.2 nM
IC50 (cells; read-out: Cell viability assay IC50 (nM), CTG on Day 10, cell line not given (method: DLD1 and DLD1^-/- cells)): < 100 nM
MRT ([1]; 100 mg/kg): 2.2 h
half-life ([1]; 100 mg/kg): 2.91 h
Time to peak ([1]; administration dose 100 mg/kg): 0.5 h
Area under curve (0-t; hr * ng/mL) ([1]; administration dose 100 mg/kg): 60.434 µg·h/mL
Peak concentration ([1]; administration dose 100 mg/kg): 22767 ng/mL
half-life at 1 µM (in vitro): 8.88 h
IC50 [2, 6]: 2.73 nM
IC50 [2, 8]: < 50 nM

COc1cnc(Cl)cc1-c1cc(C)ncc1C(=O)Nc1nc2ccc(N3CCC(O)CC3)nc2s1 [Example 46]
solubility at 2 h (Solubility assay): 61.5 µM (≈ 31.4 µg/mL)
IC50 (cells; [7]): < 100 nM
MRT ([1]; 25 mg/kg): 4.13 h
bioavailability ([1]; 25 mg/kg): 127%
half-life ([1]; 25 mg/kg): 1.59 h
Time to peak ([1]; administration dose 25 mg/kg): 2.0 h
Area under curve (0-t; hr * ng/mL) ([1]; administration dose 25 mg/kg): 46.041 µg·h/mL
Peak concentration ([1]; administration dose 25 mg/kg): 7217 ng/mL
half-life at 1 µM (in vitro): 7.9 h
IC50 [3]: 60.7 nM
IC50 [2, 6]: 8.31 nM
IC50 [2, 8]: < 50 nM

COc1cnc(Cl)cc1-c1cc(C)ncc1C(=O)Nc1nc2ccc([C@H]3CC[C@@H](O)CC3)nc2s1 [Example 28]
IC50 (cells; [7]): 100 to 500 nM
IC50 [3]: 178 nM
IC50 [2, 6]: 12.1 nM
IC50 [2, 8]: < 50 nM

COc1cnc(Cl)cc1-c1cc(C)ncc1C(=O)Nc1nn2cc(-c3ccccn3)nc2s1 [Example 97, 2'-chloro-5'-methoxy-6-methyl-N-(6-(pyridin-2-vyl)imidazol[2,1-b][1,3,4]thiadiazol-2-yl)-[4,4'-bipyridine]-3-carboxamide]
IC50 (cells; [7]): > 1000 nM
IC50 [3]: 1210 nM
IC50 ([2]; Biochemical assay IC50 (nM)): < 50 nM and 26.4 nM

COc1cnc(Cl)cc1-c1cc(C)ncc1C(=O)Nc1nc2ccc(N3CCOCC3)cc2s1 [Example 45, 2-chloro-5-methoxy-6-methyl-N-(6-morpholinylbenzothiazol-2-yl)-4, 4'-bipyridin-3-car boxamide]
IC50 (cells; [7]): 100 to 500 nM
IC50 [3]: 141 nM
IC50 ([2]; Biochemical assay IC50 (nM), ADP-Glo assay, ATPase activity of Pol θ helicase domain, ssDNA substrate): 25.4 nM
IC50 ([2]; Biochemical assay IC50 (nM), ADP-Glo, ssDNA substrate, 60 min at room temperature): < 50 nM

COc1cnc(Cl)c(F)c1-c1cc(C)ncc1C(=O)Nc1nc2cnc(-c3c(C)nnn3C)c(F)c2s1 [Example 217]
solubility at 2 h (Solubility assay): 82.6 µM (≈ 44.8 µg/mL)
IC50 (cells; [5]): < 1.52 nM
MRT ([1]; 30 mg/kg): 3.95 h
bioavailability ([1]; 30 mg/kg): 259%
half-life ([1]; 30 mg/kg): 2.16 h
Time to peak ([1]; administration dose 30 mg/kg): 0.67 h
Area under curve (0-t; hr * ng/mL) ([1]; administration dose 30 mg/kg): 852.39 µg·h/mL
Peak concentration ([1]; administration dose 30 mg/kg): 156130 ng/mL
IC50 [2, 6]: 3.63 nM
Half-life (T1/2, min) [4]: ∞

COc1cnc(Cl)cc1-c1cc(C)ncc1C(=O)Nc1nc2cnc(-c3c(C)nnn3C)cc2s1 [Example 175, 2'-chloro-N-(6-(1,4-dimethyl-1H-1,2,3-triazol-5-yl)thiazolo[4,5-c]pyridin-2-yl)-5'-methoxy-6-methyl-[4,4'-bipyridine]-3-carboxamide]
solubility at 2 h (Solubility assay): 4.61 µM (≈ 2.34 µg/mL)
IC50 (cells; [5]): 10 nM
MRT ([1]; 30 mg/kg): 4.58 h
bioavailability ([1]; 30 mg/kg): 151%
half-life ([1]; 30 mg/kg): 2.68 h
Time to peak ([1]; administration dose 30 mg/kg): 1.67 h
Area under curve (0-t; hr * ng/mL) ([1]; administration dose 30 mg/kg): 293.209 µg·h/mL
Peak concentration ([1]; administration dose 30 mg/kg): 42933 ng/mL
half-life at 1 µM (in vitro): 10.5 h
IC50 [2, 6]: 1.84 nM

COc1cnc(Cl)cc1-c1cnccc1C(=O)Nc1nc2ccc([C@H]3CC[C@@H](O)CC3)nc2s1 [Example 33]
IC50 (cells; [7]): 100 to 500 nM
IC50 [3]: 171 nM
IC50 [2, 6]: 24.9 nM
IC50 [2, 8]: < 50 nM

COc1cnc(Cl)cc1-c1cc(C)ncc1C(=O)Nc1nc2ncc([C@H]3CC[C@@H](O)CC3)cc2s1 [Example 26, 2'-chloro-N-(6-((1s, 4s)-4-hydroxycyclohexyl)thiazolo[4,5-b]pyridin-2-yl)-5'-methoxy-6-methyl-[4,4'-bipyridine]-3-carboxamide]
IC50 (cells; [7]): 100 to 500 nM
IC50 [3]: 158 nM
IC50 ([2]; Biochemical assay IC50 (nM)): < 50 nM and 5.69 nM
